Source: article PMC10175918 (Communications Biology, 2023)
Where two headings read alike, the source gives them in different places.

What was measured:
Experiment in all cases: TGFα-shedding assay-based GPCR screening with chimeric Gα subunit proteins
Format in all cases: cell-based
[1] = biological target: T1, 348 GPCRs (Homo sapiens, UniProt Q6QNK2); details: 10µM, Favipiravir 100μM
T1 construct: expressed in transfected cells; host or cells: HEK293A
T1 sequence (Q6QNK2 26-874): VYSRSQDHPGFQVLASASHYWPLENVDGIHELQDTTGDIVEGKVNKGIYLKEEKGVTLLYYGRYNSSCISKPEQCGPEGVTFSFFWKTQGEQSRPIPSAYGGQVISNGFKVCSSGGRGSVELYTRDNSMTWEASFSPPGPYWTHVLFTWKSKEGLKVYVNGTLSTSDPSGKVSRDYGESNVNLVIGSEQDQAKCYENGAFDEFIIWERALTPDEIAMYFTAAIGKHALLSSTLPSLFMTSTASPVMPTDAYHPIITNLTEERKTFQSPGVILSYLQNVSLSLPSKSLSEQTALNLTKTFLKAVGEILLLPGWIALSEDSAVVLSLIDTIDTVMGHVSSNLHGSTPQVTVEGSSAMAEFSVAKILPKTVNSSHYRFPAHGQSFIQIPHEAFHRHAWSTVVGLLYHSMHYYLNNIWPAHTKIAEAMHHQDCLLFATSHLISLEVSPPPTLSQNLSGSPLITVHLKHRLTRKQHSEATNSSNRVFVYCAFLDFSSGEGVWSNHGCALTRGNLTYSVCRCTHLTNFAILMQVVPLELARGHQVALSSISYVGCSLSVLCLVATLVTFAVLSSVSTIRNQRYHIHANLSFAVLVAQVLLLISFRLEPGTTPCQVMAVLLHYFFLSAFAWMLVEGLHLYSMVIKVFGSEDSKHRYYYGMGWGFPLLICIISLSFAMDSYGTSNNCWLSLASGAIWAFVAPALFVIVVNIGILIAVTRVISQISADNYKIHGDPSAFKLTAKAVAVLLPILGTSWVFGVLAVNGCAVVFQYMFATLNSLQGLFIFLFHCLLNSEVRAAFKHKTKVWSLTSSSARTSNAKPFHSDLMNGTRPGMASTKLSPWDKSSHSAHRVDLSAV

[2] = biological target: T2, 348 GPCRs (Homo sapiens, UniProt P24530); details: 10µM, Favipiravir 100μM
T2 construct: expressed in transfected cells; host or cells: HEK293A
T2 sequence (P24530 27-442): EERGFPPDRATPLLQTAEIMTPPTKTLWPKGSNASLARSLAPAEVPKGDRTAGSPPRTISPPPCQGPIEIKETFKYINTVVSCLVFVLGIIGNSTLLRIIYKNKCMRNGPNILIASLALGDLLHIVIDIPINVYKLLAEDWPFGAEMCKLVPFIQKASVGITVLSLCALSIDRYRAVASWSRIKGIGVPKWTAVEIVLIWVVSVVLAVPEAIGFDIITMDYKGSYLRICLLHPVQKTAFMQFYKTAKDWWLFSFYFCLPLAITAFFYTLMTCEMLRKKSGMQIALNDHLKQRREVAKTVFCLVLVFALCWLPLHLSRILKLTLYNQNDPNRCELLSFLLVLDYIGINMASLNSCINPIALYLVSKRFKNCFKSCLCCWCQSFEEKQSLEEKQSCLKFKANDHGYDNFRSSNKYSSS

[3] = biological target: T3, 348 GPCRs (Homo sapiens, UniProt P51582)
T3 construct: expressed in transfected cells; host or cells: HEK293A
T3 sequence (P51582 whole entry): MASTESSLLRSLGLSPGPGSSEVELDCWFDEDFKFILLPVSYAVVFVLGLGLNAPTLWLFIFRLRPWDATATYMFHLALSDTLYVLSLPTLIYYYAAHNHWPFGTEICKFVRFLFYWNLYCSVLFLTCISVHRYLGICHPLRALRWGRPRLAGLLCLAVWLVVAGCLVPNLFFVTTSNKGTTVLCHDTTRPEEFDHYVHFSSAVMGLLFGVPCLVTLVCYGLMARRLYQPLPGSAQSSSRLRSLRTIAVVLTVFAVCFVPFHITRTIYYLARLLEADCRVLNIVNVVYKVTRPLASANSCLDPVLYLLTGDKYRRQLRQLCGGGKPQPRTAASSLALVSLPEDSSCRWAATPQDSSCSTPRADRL

[4] = biological target: T4, 348 GPCRs (Homo sapiens, UniProt P30988); details: 10µM, Favipiravir 100μM
T4 sequence (P30988 25-474): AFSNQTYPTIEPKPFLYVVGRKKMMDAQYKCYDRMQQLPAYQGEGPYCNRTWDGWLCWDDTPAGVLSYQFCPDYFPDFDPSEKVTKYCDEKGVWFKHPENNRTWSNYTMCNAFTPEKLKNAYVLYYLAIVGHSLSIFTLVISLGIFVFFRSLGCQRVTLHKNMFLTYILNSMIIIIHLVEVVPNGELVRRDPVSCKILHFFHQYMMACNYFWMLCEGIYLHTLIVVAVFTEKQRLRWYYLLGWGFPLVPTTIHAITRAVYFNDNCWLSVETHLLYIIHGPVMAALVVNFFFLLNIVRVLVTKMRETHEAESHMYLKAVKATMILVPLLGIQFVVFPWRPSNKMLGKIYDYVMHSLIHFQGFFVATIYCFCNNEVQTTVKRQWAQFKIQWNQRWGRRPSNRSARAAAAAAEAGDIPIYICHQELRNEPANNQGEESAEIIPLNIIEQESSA

[5] = biological target: T5, 348 GPCRs (Homo sapiens, UniProt Q9GZN0); details: 10µM, Favipiravir 100μM
T5 construct: expressed in transfected cells; host or cells: HEK293A
T5 sequence (Q9GZN0 whole entry): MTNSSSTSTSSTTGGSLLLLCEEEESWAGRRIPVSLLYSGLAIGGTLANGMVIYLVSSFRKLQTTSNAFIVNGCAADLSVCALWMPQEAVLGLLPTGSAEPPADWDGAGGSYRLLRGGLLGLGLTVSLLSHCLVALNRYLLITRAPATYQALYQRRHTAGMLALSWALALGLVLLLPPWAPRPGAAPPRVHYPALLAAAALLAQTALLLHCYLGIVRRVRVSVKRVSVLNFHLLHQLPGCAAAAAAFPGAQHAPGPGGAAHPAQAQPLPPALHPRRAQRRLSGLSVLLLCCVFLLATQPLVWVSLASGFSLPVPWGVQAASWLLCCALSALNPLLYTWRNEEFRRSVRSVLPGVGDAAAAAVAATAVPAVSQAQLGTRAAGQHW

[6] = biological target: T6, 348 GPCRs (Homo sapiens, UniProt Q9HB89); details: 10µM, Favipiravir 100μM
T6 construct: expressed in transfected cells; host or cells: HEK293A
T6 sequence (Q9HB89 1-426): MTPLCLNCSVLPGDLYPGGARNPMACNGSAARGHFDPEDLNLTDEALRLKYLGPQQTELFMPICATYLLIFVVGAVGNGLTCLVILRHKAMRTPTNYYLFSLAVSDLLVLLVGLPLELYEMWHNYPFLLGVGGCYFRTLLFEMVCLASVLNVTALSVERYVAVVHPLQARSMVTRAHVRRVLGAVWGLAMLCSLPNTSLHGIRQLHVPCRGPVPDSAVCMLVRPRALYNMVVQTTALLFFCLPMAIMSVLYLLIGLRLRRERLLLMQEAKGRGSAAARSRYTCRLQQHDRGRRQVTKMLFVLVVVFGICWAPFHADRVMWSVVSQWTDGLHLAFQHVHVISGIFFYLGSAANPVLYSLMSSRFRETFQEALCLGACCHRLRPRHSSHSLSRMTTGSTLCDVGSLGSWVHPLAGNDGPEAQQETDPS

[7] = read-out: % GPCR activation compared to TPA, GPR133 (G protein-coupled receptor 133)
[8] = read-out: % GPCR activation compared to TPA, EDNRB (endothelin receptor type B)
[9] = read-out: % GPCR activation compared to TPA, GPCR P2Y4 (pyrimidinergic receptor P2Y, G-protein coupled, 4)
[10] = read-out: % GPCR activation compared to TPA, CALCR (calcitonin receptor)
[11] = read-out: % GPCR activation compared to TPA, GPR88 (G Protein-Coupled Receptor 88)
[12] = read-out: % GPCR activation compared to TPA, NMUR1 (neuromedin U receptor 1)
[13] = GPR133 (G protein-coupled receptor 133), read-out: % GPCR activation compared to TPA
[14] = EDNRB (endothelin receptor type B), read-out: % GPCR activation compared to TPA
[15] = GPCR P2Y4 (pyrimidinergic receptor P2Y, G-protein coupled, 4), read-out: % GPCR activation compared to TPA
[16] = CALCR (calcitonin receptor), read-out: % GPCR activation compared to TPA
[17] = GPR88 (G Protein-Coupled Receptor 88), read-out: % GPCR activation compared to TPA
[18] = NMUR1 (neuromedin U receptor 1), read-out: % GPCR activation compared to TPA

| Compound | activation at 100 µM [1, 7] [%] | activation at 100 µM [2, 8] [%] | activation at 10 µM [3, 9] [%] | activation at 100 µM [4, 10] [%] | activation at 100 µM [5, 11] [%] | activation at 10 µM [6, 12] [%] | activation at 100 µM [1, 13] [%] | activation at 100 µM [2, 14] [%] | activation at 10 µM [3, 15] [%] | activation at 100 µM [4, 16] [%] | activation at 100 µM [5, 17] [%] | activation at 10 µM [6, 18] [%] | activation at 100 µM ([3]; GPCR P2Y4 (pyrimidinergic receptor P2Y, G-protein coupled, 4), 100μM, read-out: % GPCR activation compared to TPA) [%] |
| --- | --- | --- | --- | --- | --- | --- | --- | --- | --- | --- | --- | --- | --- |
| CC(C)OC(=O)[C@H](C)N[P@](=O)(OC[C@H]1O[C@@H](n2ccc(=O)[nH]c2=O)[C@](C)(F)[C@@H]1O)Oc1ccccc1 [sofosbuvir] | -82.3 | -2.57 | -14.4 | -2.01 | -0.818 | -2.52 | – | – | – | – | – | – | – |
| CC(C)C(=O)OC[C@H]1O[C@@H](n2ccc(NO)nc2=O)[C@H](O)[C@@H]1O [molnupiravir] | – | – | – | – | – | – | -83.1 | -3.6 | -12.8 | -0.059 | -1.19 | -0.0262 | – |
| NC(=O)c1nc(F)cnc1O [favipiravir, 6-fluoro-3-hydroxy-2-pyrazinecarboxamide] | – | – | – | – | – | – | 2.84 | -3.11 | – | -3.06 | -1.1 | 0.18 | -6.06 |
| N#C[C@@]1(c2ccc3c(N)ncnn23)O[C@H](CO)[C@@H](O)[C@H]1O [GS441524] | – | – | – | – | – | – | 3.32 | -4.24 | -5.06 | -3.54 | -2.34 | -0.746 | – |
| CCC(CC)COC(=O)[C@H](C)N[P@](=O)(OC[C@H]1O[C@@](C#N)(c2ccc3c(N)ncnn23)[C@H](O)[C@@H]1O)Oc1ccccc1 [remdesivir] | 3.45 | -2.2 | -0.00402 | 1.27 | -0.608 | 0.248 | – | – | – | – | – | – | – |
